Values quoted from earlier work as cited in patent publication US20040019096A1, “Novel formulations of carvedilol” (priority 2003, published 2004).

Details: immediate release formulation

COc1ccccc1OCCNCC(O)COc1cccc2[nH]c3ccccc3c12 (centres unmarked) [carvedilol]
absorption following oral administration: rapidly and extensively absorbed | terminal elimination half-life (oral administration): 7 to 10 h
